Results taken from patent publication EP0309566B1, “STLV-III-RELATED POLYPEPTIDES, DIAGNOSTIC SYSTEMS AND ASSAY METHODS” (JOHNSON AND JOHNSON, priority 1987, dated 1994).

Assays:
antibodies against HIV-2 = assay: ELISA with STLV-III polypeptides p80 and p81, alone and in combination; assay type: binding, human; settings: two sera containing high titers of antibodies against HIV-2, diluted 1:10; 490nm
Description: Preliminary studies using two sera containing high titers of antibodies against HIV-2 were performed by ELISA using each of p80 and p81 alone and in combination. One hundred microliters (ul) of 0.01M NaHCO₃, pH 9.6, containing 1 microgram (ug) of either p80 or p81 or a combination (admixture) of 1 ug of p80 and 1 ug of p81 were admixed into the wells of Immunolon II microtiter plates (Dynatech, Alexandria, VA). The plates were then maintained for about 16 hours at 4 degrees C to permit the polypeptides to adsorb onto (coat) the walls of the wells. After removing the polypeptide coating solution by shaking, 300 ul of PBS containing 1% bovine serum albumin (BSA), 5mM benzamidine, 10 kilounits Aprotinin, 10ug/ml Trypsin Inhibitor, 10mM EACA, 0.5mM PMSF, 2mM EDTA and 10% glycerol were admixed into each well to block excess protein binding sites. […]
Two hundred ul of OPD substrate were then admixed into each well to form a developing-reaction admixture. After maintaining the developing-reaction admixture for 30 minutes at about 20 degrees C, 50 ul of 4N H₂SO₄ were admixed into each well to stop the developing-reaction, and the resulting solutions were assayed for absorbance at 490nm using a microtiter plate reader.

24 sera = assay: Comparison of peptide p80 based and peptide p81 based ELISA, 24 sera; assay type: binding; settings: for Ratio p80:p81: absorbance value ratio
From the text: The absorbance values obtained for each of 24 sera in a peptide p80 based ELISA were divided by those obtained in a peptide p81 based ELISA. The resulting absorbance value ratios are shown in ranked order in Table 14.

[1] = test system: sera from Swedish blood donors negative for HIV-1 and HIV-2 antibodies; assay: Specificity ELISA (Example 12, Figure 3), negative control sera; assay type: binding, human; settings: 20 negative control sera; positive O.D. above 0.150
From the text: In the Figures forming a portion of the disclosure of this invention: • Figure 1 illustrates a portion of the STLV-IIImac TMP amino acid residue sequence. The sequence is shown from left to right and in the direction of amino-terminus to carboxy-terminus in a single-letter code. The residue positions have been numbered as illustrated from 1-33. • Figure 2 illustrates, in a manner similar to Figure 1, a portion of the amino acid residue sequence of the HIV-1 TMP and represent gp41 amino acid residues […] as described in Ratner et al., Nature, 313:277-283 (1985). However, for ease of discussion, those residue positions have been renumbered as illustrated from 1-32. • Figure 3 contains 2 panels illustrating antibody determinations using a diagnostic system of this invention to assay (a) 20 sera from individuals in Guinea-Bissau previously determined to have antibodies against HIV-related viruses (West Africans), (b) 20 sera from HIV-1-infected individuals and (c) 20 sera from blood donors without antibodies to HIV-1 or HIV-2. Sera were considered positive (closed symbols) when they produced optical density (O.D.) values above 0.150 (the mean O.D. of negative samples plus 6 standard deviations). Negative sera are represented by open symbols. […]

Q: What does the source list for AIEKYLEDQAQLNAWCAFRQVC [p80]?
A: absorbance values (antibodies against HIV-2): greater than 1.1; absorbance value (24 sera; Serum No. 3541): 0.181; Ratio p80:p81 (24 sera; Serum No. 3541): 7.240; absorbance value (24 sera; Serum No. 3616): 0.686; Ratio p80:p81 (24 sera; Serum No. 3616): 14.600; absorbance value (24 sera; Serum No. 3743): 0.257; Ratio p80:p81 (24 sera; Serum No. 3743): 6.425; absorbance value (24 sera; Serum No. 3923): 0.180; Ratio p80:p81 (24 sera; Serum No. 3923): 2.687; absorbance value (24 sera; Serum No. 3942): 0.588; Ratio p80:p81 (24 sera; Serum No. 3942): 11.530; absorbance value (24 sera; Serum No. 5160): 0.251; Ratio p80:p81 (24 sera; Serum No. 5160): 1.064; absorbance value (24 sera; Serum No. 5182): 0.162; Ratio p80:p81 (24 sera; Serum No. 5182): 1.588; absorbance value (24 sera; Serum No. 5727): 0.504; Ratio p80:p81 (24 sera; Serum No. 5727): 0.895; absorbance value (24 sera; Serum No. 5740): 2.000; Ratio p80:p81 (24 sera; Serum No. 5740): 46.510; absorbance value (24 sera; Serum No. 6598): 0.072; Ratio p80:p81 (24 sera; Serum No. 6598): 0.351; absorbance value (24 sera; Serum No. 6599): 0.206; Ratio p80:p81 (24 sera; Serum No. 6599): 0.888; absorbance value (24 sera; Serum No. 6600): 0.359; Ratio p80:p81 (24 sera; Serum No. 6600): 1.173; absorbance value (24 sera; Serum No. 6601): 0.353; Ratio p80:p81 (24 sera; Serum No. 6601): 2.558; absorbance value (24 sera; Serum No. 6602): 0.516; Ratio p80:p81 (24 sera; Serum No. 6602): 516.000; absorbance value (24 sera; Serum No. 6603): 1.152; Ratio p80:p81 (24 sera; Serum No. 6603): 2.736; absorbance value (24 sera; Serum No. 6604): 1.808; Ratio p80:p81 (24 sera; Serum No. 6604): 4.520; absorbance value (24 sera; Serum No. 6631): 0.153; Ratio p80:p81 (24 sera; Serum No. 6631): 0.537; absorbance value (24 sera; Serum No. 6650): 0.700; Ratio p80:p81 (24 sera; Serum No. 6650): 20.590; absorbance value (24 sera; Serum No. 6661): 0.647; Ratio p80:p81 (24 sera; Serum No. 6661): 4.044; absorbance value (24 sera; Serum No. 6665): 0.254; Ratio p80:p81 (24 sera; Serum No. 6665): 4.792; absorbance value (24 sera; Serum No. 6674): 2.000; Ratio p80:p81 (24 sera; Serum No. 6674): 7.752; absorbance value (24 sera; Serum No. 6683): 0.387; Ratio p80:p81 (24 sera; Serum No. 6683): 0.791; absorbance value (24 sera; Serum No. 6698): 2.000; Ratio p80:p81 (24 sera; Serum No. 6698): 90.910; absorbance value (24 sera; Serum No. 6877): 0.248; Ratio p80:p81 (24 sera; Serum No. 6877): 31.000; immunoreaction with sera [1]: did not produce any substantial immunoreaction
